Assay results as given in ChEMBL document CHEMBL5291721, “A preclinical secondary pharmacology resource illuminates target-adverse drug reaction associations of marketed drugs” (Nat Commun, 2023).

Columns and labels:
[1] = biological target: T1, Alpha-1A adrenergic receptor (Homo sapiens, UniProt P35348); assay type: functional, cell-based
T1 sequence (P35348 whole entry): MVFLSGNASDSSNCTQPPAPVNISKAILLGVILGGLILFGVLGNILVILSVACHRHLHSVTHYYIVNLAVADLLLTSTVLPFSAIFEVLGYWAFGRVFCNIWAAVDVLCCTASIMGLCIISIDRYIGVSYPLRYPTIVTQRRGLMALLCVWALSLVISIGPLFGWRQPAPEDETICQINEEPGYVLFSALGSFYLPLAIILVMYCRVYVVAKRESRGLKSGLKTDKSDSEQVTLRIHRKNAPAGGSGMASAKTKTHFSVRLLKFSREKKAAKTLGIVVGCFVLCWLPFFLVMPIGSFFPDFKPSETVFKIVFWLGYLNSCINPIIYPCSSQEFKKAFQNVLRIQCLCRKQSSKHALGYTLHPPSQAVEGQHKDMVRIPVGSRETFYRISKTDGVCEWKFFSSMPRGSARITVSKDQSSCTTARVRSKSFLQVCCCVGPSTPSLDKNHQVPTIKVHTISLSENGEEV

[2] = biological target: Neuronal acetylcholine receptor subunit alpha-4 (Homo sapiens, UniProt P43681)
Cannabinoid receptor 1 = Cannabinoid receptor 1 (Homo sapiens, UniProt P21554); assay type: functional, cell-based
[3] = biological target: Growth hormone secretagogue receptor type 1 (Homo sapiens, UniProt Q92847)
[4] = biological target: T2, 5-hydroxytryptamine receptor 1A (Homo sapiens, UniProt P08908); assay type: functional, cell-based
T2 sequence (P08908 whole entry): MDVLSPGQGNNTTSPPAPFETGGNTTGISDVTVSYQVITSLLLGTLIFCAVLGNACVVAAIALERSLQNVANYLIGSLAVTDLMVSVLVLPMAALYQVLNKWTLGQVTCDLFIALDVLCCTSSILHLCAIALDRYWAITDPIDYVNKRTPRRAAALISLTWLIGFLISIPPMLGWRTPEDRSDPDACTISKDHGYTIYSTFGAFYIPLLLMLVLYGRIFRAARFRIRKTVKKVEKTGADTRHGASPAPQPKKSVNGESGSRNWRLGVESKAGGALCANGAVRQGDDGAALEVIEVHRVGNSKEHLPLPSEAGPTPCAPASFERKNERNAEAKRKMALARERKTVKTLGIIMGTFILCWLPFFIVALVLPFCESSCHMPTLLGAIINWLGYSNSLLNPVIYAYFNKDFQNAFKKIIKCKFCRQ

[5] = biological target: 5-hydroxytryptamine receptor 2B (Homo sapiens, UniProt P41595); assay type: functional, cell-based
[6] = biological target: T3, Prostaglandin G/H synthase 1 (Rattus norvegicus, UniProt Q63921); assay type: functional
T3 sequence (Q63921 whole entry): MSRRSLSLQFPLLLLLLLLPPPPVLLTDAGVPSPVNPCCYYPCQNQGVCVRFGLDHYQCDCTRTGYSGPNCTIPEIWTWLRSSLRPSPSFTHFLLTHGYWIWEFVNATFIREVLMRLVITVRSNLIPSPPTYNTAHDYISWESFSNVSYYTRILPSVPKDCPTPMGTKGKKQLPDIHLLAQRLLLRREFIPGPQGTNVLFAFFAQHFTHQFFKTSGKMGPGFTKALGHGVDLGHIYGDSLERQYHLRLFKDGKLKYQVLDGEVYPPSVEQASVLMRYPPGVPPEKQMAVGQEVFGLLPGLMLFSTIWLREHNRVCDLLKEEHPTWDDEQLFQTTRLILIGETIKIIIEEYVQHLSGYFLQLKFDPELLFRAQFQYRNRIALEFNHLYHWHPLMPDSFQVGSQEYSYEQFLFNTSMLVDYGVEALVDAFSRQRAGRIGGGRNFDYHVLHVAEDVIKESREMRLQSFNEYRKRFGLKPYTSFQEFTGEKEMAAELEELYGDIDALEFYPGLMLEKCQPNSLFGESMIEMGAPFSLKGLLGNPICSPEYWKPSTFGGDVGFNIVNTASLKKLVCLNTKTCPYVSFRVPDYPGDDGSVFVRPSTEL

[7] = biological target: Sodium-dependent dopamine transporter (Homo sapiens, UniProt Q01959)
D(3) dopamine receptor = D(3) dopamine receptor (Homo sapiens, UniProt P35462)
[8] = biological target: T1, Alpha-1A adrenergic receptor; assay type: functional, cell-based; remark: listed apart in the source
[9] = biological target: Voltage-dependent L-type calcium channel subunit alpha-1C (Rattus norvegicus, UniProt P22002); assay type: functional
Progesterone receptor = biological target: T4, Progesterone receptor (Homo sapiens, UniProt P06401); assay type: functional
T4 sequence (P06401 whole entry): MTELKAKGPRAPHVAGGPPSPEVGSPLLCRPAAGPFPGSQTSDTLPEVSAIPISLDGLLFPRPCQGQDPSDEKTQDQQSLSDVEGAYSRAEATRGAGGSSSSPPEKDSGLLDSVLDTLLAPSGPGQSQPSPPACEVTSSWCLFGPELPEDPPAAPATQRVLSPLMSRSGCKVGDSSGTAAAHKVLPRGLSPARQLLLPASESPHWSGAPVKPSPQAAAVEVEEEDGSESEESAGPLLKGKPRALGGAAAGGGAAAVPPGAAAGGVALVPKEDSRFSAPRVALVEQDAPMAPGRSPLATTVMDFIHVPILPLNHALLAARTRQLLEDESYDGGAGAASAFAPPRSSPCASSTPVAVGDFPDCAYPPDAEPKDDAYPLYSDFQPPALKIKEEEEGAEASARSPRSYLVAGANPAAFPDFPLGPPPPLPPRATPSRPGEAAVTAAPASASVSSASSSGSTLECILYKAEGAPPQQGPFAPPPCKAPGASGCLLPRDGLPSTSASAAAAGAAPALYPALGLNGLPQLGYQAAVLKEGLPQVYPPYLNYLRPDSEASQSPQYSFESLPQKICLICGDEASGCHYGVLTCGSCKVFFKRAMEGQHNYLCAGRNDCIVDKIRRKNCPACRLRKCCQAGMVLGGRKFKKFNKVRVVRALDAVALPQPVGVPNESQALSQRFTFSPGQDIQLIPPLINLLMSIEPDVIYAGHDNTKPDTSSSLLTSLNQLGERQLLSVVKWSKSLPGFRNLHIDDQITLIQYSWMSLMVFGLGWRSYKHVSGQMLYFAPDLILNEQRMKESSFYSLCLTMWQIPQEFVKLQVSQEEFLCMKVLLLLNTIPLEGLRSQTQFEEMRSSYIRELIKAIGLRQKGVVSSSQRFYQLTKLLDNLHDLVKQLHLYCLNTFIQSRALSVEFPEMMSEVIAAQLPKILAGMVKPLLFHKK

[10] = biological target: T1, Alpha-1A adrenergic receptor; assay type: functional, cell-based; remark: listed apart in the source
Also: assay procedure not described here.

D(3) dopamine receptor, sequence (P35462 whole entry): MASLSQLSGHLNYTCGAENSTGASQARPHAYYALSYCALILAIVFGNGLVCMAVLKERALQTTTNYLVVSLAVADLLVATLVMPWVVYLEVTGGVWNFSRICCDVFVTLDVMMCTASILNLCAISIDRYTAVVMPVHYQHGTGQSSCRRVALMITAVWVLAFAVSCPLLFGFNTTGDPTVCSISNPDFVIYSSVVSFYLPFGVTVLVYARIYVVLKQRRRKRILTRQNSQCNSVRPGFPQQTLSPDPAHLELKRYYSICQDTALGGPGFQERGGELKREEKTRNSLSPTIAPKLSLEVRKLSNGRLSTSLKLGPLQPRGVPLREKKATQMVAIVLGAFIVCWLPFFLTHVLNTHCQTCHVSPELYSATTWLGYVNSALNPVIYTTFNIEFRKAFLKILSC
Growth hormone secretagogue receptor type 1, sequence (Q92847 whole entry): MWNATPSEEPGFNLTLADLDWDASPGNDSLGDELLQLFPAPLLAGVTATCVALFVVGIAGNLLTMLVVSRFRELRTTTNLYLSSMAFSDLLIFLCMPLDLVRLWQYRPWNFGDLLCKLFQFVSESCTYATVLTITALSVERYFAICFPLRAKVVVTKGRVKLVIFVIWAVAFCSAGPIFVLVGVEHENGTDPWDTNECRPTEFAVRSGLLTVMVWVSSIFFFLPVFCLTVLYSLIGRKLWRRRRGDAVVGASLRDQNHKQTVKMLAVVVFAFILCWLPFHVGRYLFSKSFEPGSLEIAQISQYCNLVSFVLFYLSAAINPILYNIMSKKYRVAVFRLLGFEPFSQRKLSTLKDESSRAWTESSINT
Cannabinoid receptor 1, sequence (P21554 whole entry): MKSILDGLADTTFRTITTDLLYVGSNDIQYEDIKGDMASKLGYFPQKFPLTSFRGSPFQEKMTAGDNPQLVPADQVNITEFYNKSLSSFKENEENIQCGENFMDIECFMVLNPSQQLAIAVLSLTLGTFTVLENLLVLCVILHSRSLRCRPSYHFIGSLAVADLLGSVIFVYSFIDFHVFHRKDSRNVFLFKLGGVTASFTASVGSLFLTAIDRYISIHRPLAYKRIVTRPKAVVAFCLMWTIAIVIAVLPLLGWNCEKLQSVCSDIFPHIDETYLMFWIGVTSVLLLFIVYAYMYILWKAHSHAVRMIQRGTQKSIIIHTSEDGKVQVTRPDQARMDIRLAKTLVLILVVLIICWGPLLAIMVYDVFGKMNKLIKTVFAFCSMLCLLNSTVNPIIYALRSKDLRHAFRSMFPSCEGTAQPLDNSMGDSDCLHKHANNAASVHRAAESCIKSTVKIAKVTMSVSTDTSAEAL
Sodium-dependent dopamine transporter, sequence (Q01959 whole entry): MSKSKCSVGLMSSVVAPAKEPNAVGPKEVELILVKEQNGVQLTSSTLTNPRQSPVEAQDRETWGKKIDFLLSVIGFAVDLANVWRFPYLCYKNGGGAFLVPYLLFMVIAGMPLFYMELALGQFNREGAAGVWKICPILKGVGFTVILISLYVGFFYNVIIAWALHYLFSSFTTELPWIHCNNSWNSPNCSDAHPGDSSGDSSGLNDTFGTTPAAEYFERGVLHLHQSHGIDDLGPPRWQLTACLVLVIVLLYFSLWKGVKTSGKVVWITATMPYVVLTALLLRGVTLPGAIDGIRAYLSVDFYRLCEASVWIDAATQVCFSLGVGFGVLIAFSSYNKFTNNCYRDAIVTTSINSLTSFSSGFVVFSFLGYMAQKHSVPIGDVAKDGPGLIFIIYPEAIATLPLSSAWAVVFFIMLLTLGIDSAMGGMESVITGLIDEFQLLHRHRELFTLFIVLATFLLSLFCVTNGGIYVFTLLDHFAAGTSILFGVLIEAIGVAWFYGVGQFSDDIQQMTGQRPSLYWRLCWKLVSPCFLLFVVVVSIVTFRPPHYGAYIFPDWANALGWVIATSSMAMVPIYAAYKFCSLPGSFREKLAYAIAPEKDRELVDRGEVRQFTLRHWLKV
Voltage-dependent L-type calcium channel subunit alpha-1C, sequence (P22002 whole entry): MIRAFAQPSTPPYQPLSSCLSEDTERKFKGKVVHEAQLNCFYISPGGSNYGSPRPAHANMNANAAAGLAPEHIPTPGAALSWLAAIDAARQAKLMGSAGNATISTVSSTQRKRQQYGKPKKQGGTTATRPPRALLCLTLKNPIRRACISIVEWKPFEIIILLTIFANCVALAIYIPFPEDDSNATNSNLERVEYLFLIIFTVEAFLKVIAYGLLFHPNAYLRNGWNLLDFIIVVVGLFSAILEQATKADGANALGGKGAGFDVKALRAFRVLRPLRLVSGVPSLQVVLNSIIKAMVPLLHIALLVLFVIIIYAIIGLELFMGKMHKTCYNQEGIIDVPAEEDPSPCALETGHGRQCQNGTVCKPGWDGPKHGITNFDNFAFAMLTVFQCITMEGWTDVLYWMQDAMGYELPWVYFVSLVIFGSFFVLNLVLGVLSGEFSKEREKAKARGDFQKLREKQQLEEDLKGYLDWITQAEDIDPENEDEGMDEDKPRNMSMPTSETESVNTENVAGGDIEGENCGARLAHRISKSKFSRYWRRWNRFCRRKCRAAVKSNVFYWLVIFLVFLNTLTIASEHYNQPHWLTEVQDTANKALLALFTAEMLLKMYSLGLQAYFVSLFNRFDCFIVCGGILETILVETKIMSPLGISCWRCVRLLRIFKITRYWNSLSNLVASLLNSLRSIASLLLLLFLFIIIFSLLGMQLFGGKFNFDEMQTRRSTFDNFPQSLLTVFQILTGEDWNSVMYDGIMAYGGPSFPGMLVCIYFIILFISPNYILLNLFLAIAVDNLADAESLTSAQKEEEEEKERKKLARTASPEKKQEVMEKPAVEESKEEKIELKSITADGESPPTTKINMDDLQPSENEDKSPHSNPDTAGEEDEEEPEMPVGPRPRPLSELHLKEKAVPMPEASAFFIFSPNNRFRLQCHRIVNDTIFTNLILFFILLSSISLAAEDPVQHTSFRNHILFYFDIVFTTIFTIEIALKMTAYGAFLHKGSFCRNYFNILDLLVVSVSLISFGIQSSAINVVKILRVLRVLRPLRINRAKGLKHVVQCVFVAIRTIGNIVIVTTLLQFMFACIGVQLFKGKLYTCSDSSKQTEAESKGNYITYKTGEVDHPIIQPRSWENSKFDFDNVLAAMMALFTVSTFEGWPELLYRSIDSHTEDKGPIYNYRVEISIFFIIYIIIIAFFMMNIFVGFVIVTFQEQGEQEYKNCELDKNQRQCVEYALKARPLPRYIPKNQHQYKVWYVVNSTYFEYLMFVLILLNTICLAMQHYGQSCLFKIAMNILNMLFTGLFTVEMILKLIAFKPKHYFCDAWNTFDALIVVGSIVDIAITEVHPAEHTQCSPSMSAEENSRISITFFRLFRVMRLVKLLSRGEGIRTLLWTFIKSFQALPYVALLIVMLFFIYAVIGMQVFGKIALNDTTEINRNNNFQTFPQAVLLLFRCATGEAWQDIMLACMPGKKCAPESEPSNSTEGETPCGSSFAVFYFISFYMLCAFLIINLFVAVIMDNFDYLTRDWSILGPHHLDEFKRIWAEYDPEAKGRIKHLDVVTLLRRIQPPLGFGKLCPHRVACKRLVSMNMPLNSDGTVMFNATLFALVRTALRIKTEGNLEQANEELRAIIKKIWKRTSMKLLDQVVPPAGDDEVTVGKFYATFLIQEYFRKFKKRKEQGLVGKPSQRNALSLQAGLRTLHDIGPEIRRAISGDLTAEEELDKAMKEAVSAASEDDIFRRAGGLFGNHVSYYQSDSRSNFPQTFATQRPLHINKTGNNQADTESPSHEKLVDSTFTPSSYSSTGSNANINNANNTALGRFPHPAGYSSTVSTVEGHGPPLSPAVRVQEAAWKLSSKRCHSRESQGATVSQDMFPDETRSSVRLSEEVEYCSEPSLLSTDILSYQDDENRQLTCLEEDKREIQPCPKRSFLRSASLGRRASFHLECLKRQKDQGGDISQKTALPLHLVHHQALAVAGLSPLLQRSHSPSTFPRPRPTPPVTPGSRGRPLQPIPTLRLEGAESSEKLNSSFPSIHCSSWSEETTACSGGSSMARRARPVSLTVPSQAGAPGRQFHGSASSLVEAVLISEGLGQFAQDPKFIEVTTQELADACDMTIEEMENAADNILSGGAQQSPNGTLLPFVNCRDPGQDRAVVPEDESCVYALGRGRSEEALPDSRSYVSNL
5-hydroxytryptamine receptor 2B, sequence (P41595 whole entry): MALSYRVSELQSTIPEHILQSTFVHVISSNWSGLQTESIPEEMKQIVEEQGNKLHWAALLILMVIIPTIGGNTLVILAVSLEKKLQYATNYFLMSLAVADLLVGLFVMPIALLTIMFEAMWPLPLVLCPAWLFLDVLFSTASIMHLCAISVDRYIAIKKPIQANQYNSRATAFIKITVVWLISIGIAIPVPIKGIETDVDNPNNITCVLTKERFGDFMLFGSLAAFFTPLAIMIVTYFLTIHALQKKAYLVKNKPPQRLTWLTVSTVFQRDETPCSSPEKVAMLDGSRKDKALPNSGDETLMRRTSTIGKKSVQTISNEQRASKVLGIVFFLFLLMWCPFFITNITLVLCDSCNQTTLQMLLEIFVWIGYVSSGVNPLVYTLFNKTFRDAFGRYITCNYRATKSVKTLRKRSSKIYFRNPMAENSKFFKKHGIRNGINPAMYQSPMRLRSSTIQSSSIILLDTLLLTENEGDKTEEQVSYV

| Structure (SMILES) | AC50 [1] | AC50 [2] | AC50 (Cannabinoid receptor 1) | AC50 [3] | AC50 [4] | AC50 [5] | AC50 [6] | AC50 [7] | AC50 (D(3) dopamine receptor) | AC50 [8] | AC50 [9] | AC50 (Progesterone receptor) | AC50 [10] |
| --- | --- | --- | --- | --- | --- | --- | --- | --- | --- | --- | --- | --- | --- |
| C[C@H](CCC(=O)O)[C@H]1CC[C@H]2[C@@H]3[C@@H](O)C[C@@H]4C[C@H](O)CC[C@]4(C)[C@H]3CC[C@]12C [URSODIOL] | > 30 µM | > 30 µM | > 30 µM | > 30 µM | > 30 µM | > 30 µM | > 30 µM | > 30 µM | > 30 µM | > 30 µM | – | – | – |
| CC(C(=O)O)c1ccc2c(c1)[nH]c1ccc(Cl)cc12 (configuration not stated) [CARPROFEN] | – | > 30 µM | – | > 30 µM | > 10 µM | > 10 µM | > 30 µM | > 30 µM | > 30 µM | – | > 10 µM | > 30 µM | – |
| CN(CC1(C)CCCO1)S(=O)(=O)c1ccc(Cl)c(S(N)(=O)=O)c1 (configuration not stated) [MEFRUSIDE] | > 30 µM | – | > 30 µM | – | > 30 µM | > 30 µM | – | – | > 30 µM | > 30 µM | – | – | – |
| COc1cc2nc(N3CCN(C(=O)C4CCCO4)CC3)nc(N)c2cc1OC (configuration not stated) [TERAZOSIN] | – | > 10 µM | > 30 µM | > 30 µM | > 10 µM | > 10 µM | > 30 µM | > 10 µM | > 30 µM | – | – | – | – |
| CCCN(CCC)C(=O)Cc1c(-c2ccc(Cl)cc2)nc2ccc(Cl)cn12 [ALPIDEM] | – | > 30 µM | – | > 30 µM | – | > 30 µM | > 30 µM | > 30 µM | > 30 µM | – | > 30 µM | > 30 µM | > 30 µM |
| O=C1CN(/N=C/c2ccc(-c3ccc([N+](=O)[O-])cc3)o2)C(O)=N1 [DANTROLENE] | – | > 10 µM | – | > 10 µM | > 10 µM | > 10 µM | > 10 µM | > 10 µM | > 30 µM | – | > 10 µM | > 10 µM | – |
| CC(=O)O[C@]1(C(C)=O)CC[C@H]2[C@@H]3C=C(C)C4=CC(=O)CC[C@@H]4[C@H]3CC[C@@]21C [NOMEGESTROL ACETATE] | > 30 µM | > 30 µM | > 30 µM | – | – | > 30 µM | > 30 µM | > 30 µM | > 30 µM | > 30 µM | – | 0.028 µM | > 30 µM |
| C#C[C@]1(O)CC[C@H]2[C@@H]3CCC4=CC(=O)CC[C@@H]4[C@H]3C(=C)C[C@@]21CC [ETONOGESTREL] | > 30 µM | – | > 30 µM | – | > 30 µM | > 30 µM | – | – | > 30 µM | > 30 µM | – | – | – |
| CC(C)c1nc(N(C)S(C)(=O)=O)nc(-c2ccc(F)cc2)c1/C=C/[C@@H](O)C[C@@H](O)CC(=O)O [ROSUVASTATIN] | > 30 µM | > 30 µM | > 30 µM | > 30 µM | > 30 µM | > 30 µM | > 30 µM | > 30 µM | > 30 µM | > 30 µM | – | > 30 µM | – |
| C[C@H]1c2cccc(O)c2C(=O)C2=C(O)[C@]3(O)C(=O)C(C(N)=O)=C(O)[C@@H](N(C)C)[C@@H]3[C@@H](O)[C@@H]21 [DOXYCYCLINE] | > 30 µM | > 10 µM | > 30 µM | > 30 µM | > 10 µM | > 10 µM | > 30 µM | > 10 µM | > 10 µM | > 30 µM | > 10 µM | – | – |
| Nc1ccc(S(=O)(=O)Nc2nccs2)cc1 [SULFATHIAZOLE] | > 30 µM | > 10 µM | > 30 µM | > 30 µM | > 10 µM | > 10 µM | > 30 µM | > 10 µM | > 10 µM | > 30 µM | > 10 µM | – | – |
| OC[C@H]1O[C@@](CO)(O[C@H]2O[C@H](CO)[C@@H](O)[C@H](O)[C@H]2O)[C@@H](O)[C@@H]1O [SUCROSE] | > 30 µM | > 30 µM | > 30 µM | > 30 µM | > 30 µM | > 30 µM | > 30 µM | > 30 µM | > 30 µM | > 30 µM | – | > 30 µM | – |
| C[C@@H](Oc1cc(-c2cnn(C3CCNCC3)c2)cnc1N)c1c(Cl)ccc(F)c1Cl [CRIZOTINIB] | – | – | > 10 µM | 13.9 µM | > 10 µM | > 30 µM | 8.2 µM | 7.8 µM | > 30 µM | – | 1.56 µM | > 30 µM | – |
| CCCC(CCC)C(=O)O [VALPROIC ACID] | – | > 10 µM | – | > 30 µM | > 10 µM | > 10 µM | > 30 µM | 4.97 µM | 4.7 µM | – | > 10 µM | – | – |
| CN(C)CCC[C@@]1(c2ccc(F)cc2)OCc2cc(C#N)ccc21 [ESCITALOPRAM] | – | > 30 µM | > 30 µM | > 30 µM | > 30 µM | > 30 µM | > 30 µM | – | – | – | – | > 30 µM | – |
| CN1C(C(=O)Nc2ccccn2)=C(O)c2ccccc2S1(=O)=O [PIROXICAM] | – | > 10 µM | – | > 10 µM | > 10 µM | > 10 µM | – | > 10 µM | > 30 µM | – | > 10 µM | > 10 µM | – |
| CC(N)C12CC3CC(CC(C3)C1)C2 (configuration not stated) [RIMANTADINE] | – | > 10 µM | – | > 10 µM | > 10 µM | > 10 µM | > 10 µM | > 10 µM | > 30 µM | – | > 10 µM | > 10 µM | – |
